Structures can show the parent of a compound that is named as a salt. Where two headings read alike, the source gives them in different places. Where a SMILES comes first, the peptide text is derived from it. Bridges are numbered along the chain shown (N, C = ends). [ ]: non-standard residue; d: D form. The star is where a group is joined. Ileψ(thiazoline)Cys = CC[C@H](C)[C@H](N)C1=N[C@H](C(=O)*)CS1; dOrn = NCCC[C@@H](N)C(=O)O
What was measured:
Test in all cases: AK assay 384-well format, Prestwick library screening
[1] = test system: S. aureus strain USA300-0114; format: cell-based, Staphylococcus aureus; details: Staphylococcus aureus, USA300, 3 h, 50 μM final drug concentration
[2] = test system: A. baumannii strain 98-37-09; format: cell-based, Acinetobacter baumannii; details: Acinetobacter baumannii, 983709, 3 h, 50 μM final drug concentration
[3] = test system: P. aeruginosa; format: cell-based, Pseudomonas aeruginosa; details: Pseudomonas aeruginosa, 3 h, 50 μM final drug concentration
[4] = test system: E. cloacae; format: cell-based, Enterobacter cloacae; details: Enterobacter cloacae, 3 h, 50 μM final drug concentration
[5] = test system: E. faecium; format: cell-based, Enterococcus faecium; details: Enterococcus faecium, 3 h, 50 μM final drug concentration
[6] = test system: E. coli; format: cell-based, Escherichia coli; details: Escherichia coli, 3 h, 50 μM final drug concentration
[7] = test system: K. pneumoniae; format: cell-based, Klebsiella pneumoniae; details: Klebsiella pneumoniae, 3 h, 50 μM final drug concentration
[8] = planktonic, cutoff for positive-scoring molecules 3-fold increase, read-out: AK-based Prestwick Library Screening Results, S. aureus (fold increase in extracellular AK activity)
[9] = planktonic, cutoff for positive-scoring molecules 3-fold increase, read-out: AK-based Prestwick Library Screening Results, A. baumannii (fold increase in extracellular AK activity)
[10] = planktonic, cutoff for positive-scoring molecules 3-fold increase, read-out: AK-based Prestwick Library Screening Results, P. aeruginosa (fold increase in extracellular AK activity)
[11] = planktonic, cutoff for positive-scoring molecules 3-fold increase, read-out: AK-based Prestwick Library Screening Results, E. cloacae (fold increase in extracellular AK activity)
[12] = planktonic, cutoff for positive-scoring molecules 3-fold increase, read-out: AK-based Prestwick Library Screening Results, E. faecium (fold increase in extracellular AK activity)
[13] = planktonic, cutoff for positive-scoring molecules 3-fold increase, read-out: AK-based Prestwick Library Screening Results, E. coli (fold increase in extracellular AK activity)
[14] = planktonic, cutoff for positive-scoring molecules 3-fold increase, read-out: AK-based Prestwick Library Screening Results, K. pneumoniae (fold increase in extracellular AK activity)
[15] = planktonic S. aureus, cutoff for positive-scoring molecules 3-fold increase, read-out: AK-based Prestwick Library Screening Results, S. aureus (increase in extracellular AK activity)
[16] = planktonic A. baumannii, cutoff for positive-scoring molecules 3-fold increase, read-out: AK-based Prestwick Library Screening Results, A. baumannii (increase in extracellular AK activity)
[17] = planktonic P. aeruginosa, cutoff for positive-scoring molecules 3-fold increase, read-out: AK-based Prestwick Library Screening Results, P. aeruginosa (increase in extracellular AK activity)
[18] = planktonic E. cloacae, cutoff for positive-scoring molecules 3-fold increase, read-out: AK-based Prestwick Library Screening Results, E. cloacae (increase in extracellular AK activity)
[19] = planktonic E. faecium, cutoff for positive-scoring molecules 3-fold increase, read-out: AK-based Prestwick Library Screening Results, E. faecium (increase in extracellular AK activity)
[20] = planktonic E. coli, cutoff for positive-scoring molecules 3-fold increase, read-out: AK-based Prestwick Library Screening Results, E. coli (increase in extracellular AK activity)
[21] = planktonic K. pneumoniae, cutoff for positive-scoring molecules 3-fold increase, read-out: AK-based Prestwick Library Screening Results, K. pneumoniae (increase in extracellular AK activity)
[22] = cutoff for positive-scoring molecules 3-fold increase, read-out: AK-based Prestwick Library Screening Results, S. aureus (fold increase in extracellular AK activity)
[23] = cutoff for positive-scoring molecules 3-fold increase, read-out: AK-based Prestwick Library Screening Results, A. baumannii (fold increase in extracellular AK activity)
[24] = cutoff for positive-scoring molecules 3-fold increase, read-out: AK-based Prestwick Library Screening Results, P. aeruginosa (fold increase in extracellular AK activity)
[25] = cutoff for positive-scoring molecules 3-fold increase, read-out: AK-based Prestwick Library Screening Results, E. cloacae (fold increase in extracellular AK activity)
[26] = cutoff for positive-scoring molecules 3-fold increase, read-out: AK-based Prestwick Library Screening Results, E. faecium (fold increase in extracellular AK activity)
[27] = cutoff for positive-scoring molecules 3-fold increase, read-out: AK-based Prestwick Library Screening Results, E. coli (fold increase in extracellular AK activity)
[28] = cutoff for positive-scoring molecules 3-fold increase, read-out: AK-based Prestwick Library Screening Results, K. pneumoniae (fold increase in extracellular AK activity)

Compound | fold induction at 50 µM [1, 8] | fold induction at 50 µM [2, 9] | fold induction at 50 µM [3, 10] | fold induction at 50 µM [4, 11] | fold induction at 50 µM [5, 12] | fold induction at 50 µM [6, 13] | fold induction at 50 µM [7, 14] | fold induction at 50 µM [1, 15] | fold induction at 50 µM [2, 16] | fold induction at 50 µM [3, 17] | fold induction at 50 µM [4, 18] | fold induction at 50 µM [5, 19] | fold induction at 50 µM [6, 20] | fold induction at 50 µM [7, 21] | other results
CC1(C)S[C@@H]2[C@H](NC(=O)[C@H](NC(=O)N3CCNC3=O)c3ccccc3)C(=O)N2[C@H]1C(=O)O [Azlocillin sodium salt] | 0.4 | 2.1 | 9.7 | 1 | 0.9 | 12.3 | 0.7 |  |  |  |  |  |  |  | 
C[C@H]1[C@H](NC(=O)/C(=N\OC(C)(C)C(=O)O)c2csc(N)n2)C(=O)N1S(=O)(=O)O [Aztreonam] |  |  |  |  |  |  |  |  |  |  |  |  |  |  | fold induction at 50 µM ([1]; 384-well format, cutoff for positive-scoring molecules 3-fold increase, read-out: AK-based Prestwick Library Screening Results, S. aureus (increase in extracellular AK activity)): 0.6; fold induction at 50 µM ([2]; 384-well format, cutoff for positive-scoring molecules 3-fold increase, read-out: AK-based Prestwick Library Screening Results, A. baumannii (increase in extracellular AK activity)): 5.4; fold induction at 50 µM ([3]; 384-well format, cutoff for positive-scoring molecules 3-fold increase, read-out: AK-based Prestwick Library Screening Results, P. aeruginosa (increase in extracellular AK activity)): 9.1; fold induction at 50 µM ([4]; 384-well format, cutoff for positive-scoring molecules 3-fold increase, read-out: AK-based Prestwick Library Screening Results, E. cloacae (increase in extracellular AK activity)): 18.4; fold induction at 50 µM ([5]; 384-well format, cutoff for positive-scoring molecules 3-fold increase, read-out: AK-based Prestwick Library Screening Results, E. faecium (increase in extracellular AK activity)): 1; fold induction at 50 µM ([6]; 384-well format, cutoff for positive-scoring molecules 3-fold increase, read-out: AK-based Prestwick Library Screening Results, E. coli (increase in extracellular AK activity)): 15.9; fold induction at 50 µM ([7]; 384-well format, cutoff for positive-scoring molecules 3-fold increase, read-out: AK-based Prestwick Library Screening Results, K. pneumoniae (increase in extracellular AK activity)): 2.6
CCOC(=O)OC(C)OC(=O)[C@@H]1N2C(=O)[C@@H](NC(=O)[C@H](N)c3ccccc3)[C@H]2SC1(C)C (stereo partly shown) [Bacampicillin hydrochloride] |  |  |  |  |  |  |  | 0.5 | 1.3 | 0.6 | 0.6 | 1.1 | 11.9 | 0.6 | 
CC[C@H](C)[C@H](N)C1=N[C@H](C(=O)N[C@@H](CC(C)C)C(=O)N[C@H](CCC(=O)O)C(=O)N[C@H](C(=O)N[C@H]2CCCCNC(=O)[C@H](CC(N)=O)NC(=O)[C@@H](CC(=O)O)NC(=O)[C@H](Cc3cnc[nH]3)NC(=O)[C@@H](Cc3ccccc3)NC(=O)[C@H]([C@@H](C)CC)NC(=O)[C@@H](CCCN)NC2=O)[C@@H](C)CC)CS1 [Bacitracin] ({Ileψ(thiazoline)Cys}-L[dE]IK[dOrn]I[dF]H[dD]N; lactam 4-C) | 0.4 | 1.1 | 0.8 | 1.2 | 1.3 | 1 | 0.8 |  |  |  |  |  |  |  | 
O=C(O)CCNC(=O)c1ccc(/N=N/c2ccc(O)c(C(=O)O)c2)cc1 [Balsalazide Sodium] | 0.4 | 0.5 | 0.5 | 0.4 | 0.9 | 0.5 | 0.7 |  |  |  |  |  |  |  | 
CN(C)C(=O)Oc1cc(OC(=O)N(C)C)cc(C(O)CNC(C)(C)C)c1 (stereo not shown) [Bambuterol hydrochloride] |  |  |  |  |  |  |  | 1.2 | 1 | 1.2 | 1.2 | 1.1 | 1.3 | 0.9 | 
CCC(=O)OCC(=O)[C@@]1(OC(=O)CC)[C@@H](C)C[C@H]2[C@@H]3CCC4=CC(=O)C=C[C@]4(C)[C@@]3(Cl)[C@@H](O)C[C@@]21C [Beclomethasone dipropionate] |  |  |  |  |  |  |  |  |  |  |  |  |  |  | fold induction at 50 µM [1, 22]: 0.5; fold induction at 50 µM [2, 23]: 1; fold induction at 50 µM [3, 24]: 1; fold induction at 50 µM [4, 25]: 1.5; fold induction at 50 µM [5, 26]: 1; fold induction at 50 µM [6, 27]: 1.1; fold induction at 50 µM [7, 28]: 0.9
CCC1(C)CC(=O)NC(=O)C1 [Bemegride] |  |  |  |  |  |  |  |  |  |  |  |  |  |  | fold induction at 50 µM ([1]; planktonic, […], read-out: AK-based Prestwick Library Screening Results, S. aureus (fold increase in extracellular AK activity)): 0.7; fold induction at 50 µM ([2]; planktonic, […], read-out: AK-based Prestwick Library Screening Results, A. baumannii (fold increase in extracellular AK activity)): 0.7; fold induction at 50 µM ([3]; planktonic, […], read-out: AK-based Prestwick Library Screening Results, P. aeruginosa (fold increase in extracellular AK activity)): 0.6; fold induction at 50 µM ([4]; planktonic, […], read-out: AK-based Prestwick Library Screening Results, E. cloacae (fold increase in extracellular AK activity)): 0.6; fold induction at 50 µM ([5]; planktonic, […], read-out: AK-based Prestwick Library Screening Results, E. faecium (fold increase in extracellular AK activity)): 0.9; fold induction at 50 µM ([6]; planktonic, […], read-out: AK-based Prestwick Library Screening Results, E. coli (fold increase in extracellular AK activity)): 0.6; fold induction at 50 µM ([7]; planktonic, […], read-out: AK-based Prestwick Library Screening Results, K. pneumoniae (fold increase in extracellular AK activity)): 0.6
NS(=O)(=O)c1cc2c(cc1C(F)(F)F)NC(Cc1ccccc1)NS2(=O)=O (stereo not shown) [Bendroflumethiazide] |  |  |  |  |  |  |  |  |  |  |  |  |  |  | fold induction at 50 µM [1, 22]: 1.3; fold induction at 50 µM [2, 23]: 1.3; fold induction at 50 µM [3, 24]: 1.1; fold induction at 50 µM [4, 25]: 1.5; fold induction at 50 µM [5, 26]: 1.2; fold induction at 50 µM [6, 27]: 1.3; fold induction at 50 µM [7, 28]: 1.1
CC(Cc1cccc(C(F)(F)F)c1)NCCOC(=O)c1ccccc1 (stereo not shown) [Benfluorex hydrochloride] |  |  |  |  |  |  |  | 1.2 | 1 | 1.1 | 1.4 | 0.9 | 1.4 | 1.1 | 
